Measured values taken from paper PMC12638379, “An innovative approach to development of new pyrazolylquinolin-2-one hybrids as dual EGFR and BRAF^V600E inhibitors” (Molecular Diversity, 2025).
Read-outs that look alike come from different tables or passages of the source.

System: NCI 60 cancer cell lines
Assay: NCI anticancer screening over a panel of 60 cancer cells, single concentration 10 µM
Type: cell-based, human
Settings: Homo sapiens, read-out: Growth inhibition (GI %)
Method: Ten final compounds 4a–j and five intermediates 2a–e have been selected by the National Cancer Institute (NCI) for anticancer screening over a panel of 60 cancer cells that cover a variety of histological tissues, including the central nervous system, leukemia, lung, colon, kidney, ovary, breast, and prostate, using the protocol established by the National Cancer Institute (NCI). In a primary screening, each compound was screened at a concentration of 10 µM.
Compounds 2a-e and 4a-j were selected by the National Cancer Institute (NCI) according to the protocol of the Compound Evaluation Branch of the National Cancer Institute, Bethesda, USA, for in vitro anticancer screening which refers in turn to apoptotic activity. The methodology of the NCI anticancer screening has been described in detail elsewhere (http://www.dtp.nci.nih.gov).

[1] = A549, Non-small cell lung cancer A549/ATCC, 10 μM
[2] = BT-549, Breast cancer BT-549, 10 μM
[3] = CAKI-1, Renal cancer CAKI-1, 10 μM
[4] = CCRF-CEM, Leukemia CCRF-CEM, 10 μM
[5] = COLO 205, Colon cancer COLO 205, 10 μM
[6] = DU-145, Prostate cancer DU-145, 10 μM
[7] = EKVX, Non-small cell lung cancer EKVX, 10 μM
[8] = HCC 2998, Colon cancer HCC-2998, 10 μM
[9] = HCT-15, Colon cancer HCT-15, 10 μM
[10] = HCT-116, Colon cancer HCT-116, 10 μM
[11] = HL-60, Leukemia HL-60(TB), 10 μM
[12] = HOP-62, Non-small cell lung cancer HOP-62, 10 μM
[13] = HOP-92, Non-small cell lung cancer HOP-92, 10 μM
[14] = HT-29, Colon cancer HT29, 10 μM
[15] = Hs-578T, Breast cancer HS 578T, 10 μM
[16] = IGROV-1, Ovarian cancer IGROV1, 10 μM
[17] = LOX IMVI, Melanoma LOX IMVI, 10 μM
[18] = MCF7, Breast cancer MCF7, 10 μM
[19] = MDA-MB-435, Melanoma MDA-MB-435, 10 μM
[20] = MDA-MB-468, Breast cancer MDA-MB-468, 10 μM
[21] = Malme-3M, Melanoma MALME-3M, 10 μM
[22] = NCI-H23, Non-small cell lung cancer NCI-H23, 10 μM
[23] = NCI-H226, Non-small cell lung cancer NCI-H226, 10 μM
[24] = NCI-H322M, Non-small cell lung cancer NCI-H322M, 10 μM
[25] = NCI-H460, Non-small cell lung cancer NCI-H460, 10 μM
[26] = NCI-H522, Non-small cell lung cancer NCI-H522, 10 μM
[27] = NCI/ADR-RES, Ovarian cancer NCI/ADR-RES, 10 μM
[28] = OVCAR-3, Ovarian cancer OVCAR-3, 10 μM
[29] = OVCAR-4, Ovarian cancer OVCAR-4, 10 μM
[30] = OVCAR-5, Ovarian cancer OVCAR-5, 10 μM
[31] = OVCAR-8, Ovarian cancer OVCAR-8, 10 μM
[32] = RPMI-8226, Leukemia RPMI-8226, 10 μM
[33] = RXF 393, Renal cancer RXF 393, 10 μM
[34] = SF-268, CNS Cancer SF-268, 10 μM
[35] = SF-295, CNS Cancer SF-295, 10 μM
[36] = SF-539, CNS Cancer SF-539, 10 μM
[37] = SK-MEL-2, Melanoma SK-MEL-2, 10 μM
[38] = SK-MEL-5, Melanoma SK-MEL-5, 10 μM
[39] = SK-MEL-28, Melanoma SK-MEL-28, 10 μM
[40] = SK-OV-3, Ovarian cancer SK-OV-3, 10 μM
[41] = SN12C, Renal cancer SN12C, 10 μM
[42] = SNB-19, CNS Cancer SNB-19, 10 μM
[43] = SNB-75, CNS Cancer SNB-75, 10 μM
[44] = SW-620, Colon cancer SW-620, 10 μM
[45] = T47D, Breast cancer T-47D, 10 μM
[46] = TK-10, Renal cancer TK-10, 10 μM
[47] = UACC-62, Melanoma UACC-62, 10 μM
[48] = UACC-257, Melanoma UACC-257, 10 μM
[49] = UO-31, Renal cancer UO-31, 10 μM

`COc1ccc2[nH]c(=O)cc(-n3ncc(C(C)=O)c3C)c2c1` [Compound 2c, 4-(4-Acetyl-5-methyl-1H-pyrazol-1-yl)-6-methoxyquinolin-2(1H)-one] gave an inhibition at 10 µM (786-0, Renal cancer 786-0, 10 μM) of less than 5%, an inhibition at 10 µM (A498, Renal cancer A498, 10 μM) of less than 5% and an inhibition at 10 µM [1] of less than 5%. The inhibition at 10 µM (ACHN, Renal cancer ACHN, 10 μM) was less than 5%, the inhibition at 10 µM [2] was less than 5% and the inhibition at 10 µM [3] was 15.6%. For the same molecule, the inhibition at 10 µM [4] was 5.28%, the inhibition at 10 µM [5] was less than 5% and the inhibition at 10 µM [6] was less than 5%. The inhibition at 10 µM [7] was 6.27%, the inhibition at 10 µM [8] was less than 5% and the inhibition at 10 µM [9] was less than 5%. The inhibition at 10 µM [10] was 7.78%, the inhibition at 10 µM [11] was 12.5% and the inhibition at 10 µM [12] was 18.8%. It also gave an inhibition at 10 µM [13] of 31.6%, an inhibition at 10 µM [14] of less than 5% and an inhibition at 10 µM [15] of less than 5%. For the same molecule, the inhibition at 10 µM [16] was less than 5%, the inhibition at 10 µM (K562, Leukemia K-562, 10 μM) was less than 5% and the inhibition at 10 µM (KM12, Colon cancer KM12, 10 μM) was less than 5%. It also gave an inhibition at 10 µM [17] of 11.3%, an inhibition at 10 µM (Leukemia SR, 10 μM) of 8.98% and an inhibition at 10 µM [18] of less than 5%. It also gave an inhibition at 10 µM (MDA-MB-231, Breast Cancer MDA-MB 231/ATCC, 10 μM) of 7%, an inhibition at 10 µM [19] of less than 5% and an inhibition at 10 µM [20] of less than 5%. The inhibition at 10 µM (MOLT-4, Leukemia MOLT-4, 10 μM) was less than 5%, the inhibition at 10 µM [21] was less than 5% and the inhibition at 10 µM (Melanoma M14, 10 μM) was less than 5%. For the same molecule, the inhibition at 10 µM [22] was less than 5%, the inhibition at 10 µM [23] was 7.15% and the inhibition at 10 µM [24] was 7.11%. It also gave an inhibition at 10 µM [25] of less than 5%, an inhibition at 10 µM [26] of 8.32% and an inhibition at 10 µM [27] of less than 5%. The inhibition at 10 µM [28] was less than 5%, the inhibition at 10 µM [29] was less than 5% and the inhibition at 10 µM [30] was less than 5%. It also gave an inhibition at 10 µM [31] of less than 5%, an inhibition at 10 µM (Prostate cancer PC-3, 10 μM) of 13.4% and an inhibition at 10 µM [32] of 11.7%. It also gave an inhibition at 10 µM [33] of less than 5%, an inhibition at 10 µM [34] of less than 5% and an inhibition at 10 µM [35] of less than 5%. The inhibition at 10 µM [36] was less than 5%, the inhibition at 10 µM [37] was less than 5% and the inhibition at 10 µM [38] was less than 5%. The inhibition at 10 µM [39] was less than 5%, the inhibition at 10 µM [40] was 7.83% and the inhibition at 10 µM [41] was less than 5%. The inhibition at 10 µM [42] was less than 5%, the inhibition at 10 µM [43] was 11.8% and the inhibition at 10 µM [44] was less than 5%. For the same molecule, the inhibition at 10 µM [45] was 9.18%, the inhibition at 10 µM [46] was less than 5% and the inhibition at 10 µM (U-251, CNS Cancer U251, 10 μM) was 5.38%. The inhibition at 10 µM [47] was less than 5%, the inhibition at 10 µM [48] was less than 5% and the inhibition at 10 µM [49] was 34.4%.

`CC(=O)c1cnn(-c2cc(=O)[nH]c3ccc(Cl)cc23)c1C` [Compound 2d, 4-(4Aacetyl-5-methyl-1H-pyrazol-1-yl)-6-chloroquinolin-2(1H)-one] was tested, and the inhibition at 10 µM (A498, Renal cancer A498, 10 μM) was less than 5%, the inhibition at 10 µM [1] was 5.11% and the inhibition at 10 µM (ACHN, Renal cancer ACHN, 10 μM) was 7.6%. The inhibition at 10 µM [2] was less than 5%, the inhibition at 10 µM [3] was 15.1% and the inhibition at 10 µM [4] was 8.99%. It also gave an inhibition at 10 µM [5] of less than 5%, an inhibition at 10 µM [6] of less than 5% and an inhibition at 10 µM [7] of 13.9%. The inhibition at 10 µM [8] was less than 5%, the inhibition at 10 µM [9] was less than 5% and the inhibition at 10 µM [10] was less than 5%. It also gave an inhibition at 10 µM [11] of 6.19%, an inhibition at 10 µM [12] of 9.35% and an inhibition at 10 µM [13] of 13.4%. It also gave an inhibition at 10 µM [14] of less than 5%, an inhibition at 10 µM [15] of less than 5% and an inhibition at 10 µM [16] of 7.41%. For the same molecule, the inhibition at 10 µM (K562, Leukemia K-562, 10 μM) was 5.5%, the inhibition at 10 µM (KM12, Colon cancer KM12, 10 μM) was less than 5% and the inhibition at 10 µM [17] was 11.2%. It also gave an inhibition at 10 µM (Leukemia SR, 10 μM) of less than 5%, an inhibition at 10 µM [18] of 6.43% and an inhibition at 10 µM [19] of less than 5%. It also gave an inhibition at 10 µM [20] of less than 5%, an inhibition at 10 µM (MOLT-4, Leukemia MOLT-4, 10 μM) of 8.77% and an inhibition at 10 µM [21] of 13.3%. It also gave an inhibition at 10 µM (Melanoma M14, 10 μM) of less than 5%, an inhibition at 10 µM [22] of 5.37% and an inhibition at 10 µM [23] of 16.6%. It also gave an inhibition at 10 µM [24] of 12.2%, an inhibition at 10 µM [25] of less than 5% and an inhibition at 10 µM [26] of 5.29%. For the same molecule, the inhibition at 10 µM [27] was 5.32%, the inhibition at 10 µM [28] was less than 5% and the inhibition at 10 µM [29] was less than 5%. The inhibition at 10 µM [30] was less than 5%, the inhibition at 10 µM [31] was less than 5% and the inhibition at 10 µM (Prostate cancer PC-3, 10 μM) was 11%. The inhibition at 10 µM [32] was 9.16%, the inhibition at 10 µM [33] was less than 5% and the inhibition at 10 µM [34] was less than 5%. It also gave an inhibition at 10 µM [35] of 5.21%, an inhibition at 10 µM [36] of 14.4% and an inhibition at 10 µM [37] of less than 5%. The inhibition at 10 µM [38] was 5.89%, the inhibition at 10 µM [39] was less than 5% and the inhibition at 10 µM [40] was 6.14%. The inhibition at 10 µM [41] was 15.2%, the inhibition at 10 µM [42] was 7.35% and the inhibition at 10 µM [43] was less than 5%. The inhibition at 10 µM [44] was less than 5%, the inhibition at 10 µM [45] was less than 5% and the inhibition at 10 µM [46] was less than 5%. For the same molecule, the inhibition at 10 µM (U-251, CNS Cancer U251, 10 μM) was less than 5%, the inhibition at 10 µM [47] was 15.7% and the inhibition at 10 µM [48] was less than 5%. It also gave an inhibition at 10 µM [49] of 35%.
